Experimental findings from ChEMBL document CHEMBL5344475, “Indole-containing pharmaceuticals: targets, pharmacological activities, and SAR studies” (RSC Med Chem, 2024) are described below.

Series [1] is described as follows: Apparent volume of distribution in Sprague-Dawley rat at 1 mg/kg, iv. The format is ADME, organism-based. As to conditions: in vivo.
Series [2] is described as follows: Effective half life in human. The conditions noted are these: in vivo, read-out: t1/2eff (converted).
In series [3] the target is T1, DNA polymerase alpha catalytic subunit (Homo sapiens, UniProt P09884).
T1 sequence (P09884 whole entry): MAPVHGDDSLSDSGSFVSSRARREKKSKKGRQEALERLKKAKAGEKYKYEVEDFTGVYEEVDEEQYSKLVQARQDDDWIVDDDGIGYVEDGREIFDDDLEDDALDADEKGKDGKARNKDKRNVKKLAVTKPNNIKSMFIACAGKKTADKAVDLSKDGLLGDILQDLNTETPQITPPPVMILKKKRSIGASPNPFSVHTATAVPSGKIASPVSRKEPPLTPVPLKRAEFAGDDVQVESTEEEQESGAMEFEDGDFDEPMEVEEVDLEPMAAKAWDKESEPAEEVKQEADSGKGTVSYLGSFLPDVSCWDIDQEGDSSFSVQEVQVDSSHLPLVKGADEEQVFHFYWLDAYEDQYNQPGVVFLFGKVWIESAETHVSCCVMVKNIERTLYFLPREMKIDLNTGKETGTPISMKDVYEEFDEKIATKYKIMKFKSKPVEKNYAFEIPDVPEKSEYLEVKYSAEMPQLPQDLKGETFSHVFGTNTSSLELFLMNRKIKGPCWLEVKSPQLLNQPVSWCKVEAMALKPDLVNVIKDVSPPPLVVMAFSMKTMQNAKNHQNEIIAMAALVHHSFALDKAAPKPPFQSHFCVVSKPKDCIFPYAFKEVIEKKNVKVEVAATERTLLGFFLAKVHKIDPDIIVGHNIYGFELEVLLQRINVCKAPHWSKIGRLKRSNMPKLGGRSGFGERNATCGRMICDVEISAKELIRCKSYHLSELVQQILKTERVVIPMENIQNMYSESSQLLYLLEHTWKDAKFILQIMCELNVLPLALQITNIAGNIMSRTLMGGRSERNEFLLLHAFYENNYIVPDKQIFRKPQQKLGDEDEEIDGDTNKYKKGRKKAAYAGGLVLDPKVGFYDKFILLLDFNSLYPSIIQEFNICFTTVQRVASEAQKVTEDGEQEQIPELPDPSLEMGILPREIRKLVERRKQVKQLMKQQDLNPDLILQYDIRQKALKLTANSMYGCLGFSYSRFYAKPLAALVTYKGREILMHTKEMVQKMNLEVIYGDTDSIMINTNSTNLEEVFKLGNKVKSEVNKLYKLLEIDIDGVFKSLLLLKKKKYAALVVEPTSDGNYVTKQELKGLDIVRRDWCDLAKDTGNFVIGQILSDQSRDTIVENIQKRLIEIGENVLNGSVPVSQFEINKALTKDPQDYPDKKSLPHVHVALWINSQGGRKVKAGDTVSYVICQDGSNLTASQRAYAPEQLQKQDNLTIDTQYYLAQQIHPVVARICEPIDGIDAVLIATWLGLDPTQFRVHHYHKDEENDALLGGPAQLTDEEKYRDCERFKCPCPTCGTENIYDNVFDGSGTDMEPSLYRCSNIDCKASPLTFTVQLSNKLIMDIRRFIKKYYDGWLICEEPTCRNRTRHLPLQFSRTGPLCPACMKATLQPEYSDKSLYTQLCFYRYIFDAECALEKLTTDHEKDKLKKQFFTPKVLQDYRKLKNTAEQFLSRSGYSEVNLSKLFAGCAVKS
Description: Inhibition of DNA polymerase alpha (unknown origin).

Series [4] in a line: Half life in human plasma. The format is ADME, cell-free.
The nature of series [5]: Inhibition of tyrosine kinase (unknown origin). Further details: species or system Homo sapiens.
Series [6] in a line: Plasma protein binding in human assessed as unbound fraction. The format is ADME, cell-free.
Series [7] in a line: Volume of distribution at steady state in iv dosed human. As to conditions: in vivo, read-out: Vdss.
Series [8] is described as follows: Volume of distribution in Wistar rat. The format is ADME. As to conditions: in vivo.
The nature of series [9]: Tmax in human plasma. The format is ADME, cell-free.
Series [10] can be described thus: AUC in Sprague-Dawley rat at 10 mg/kg, iv by LC-MS/MS analysis. The format is ADME, organism-based. On the set-up: dose 10 mg/kg, route iv. As to conditions: in vivo.

Regarding `CC(C)(CO)c1cc2cc(NC(=O)C3(c4ccc5c(c4)OC(F)(F)O5)CC3)c(F)cc2n1C[C@@H](O)CO` [TEZACAFTOR], in series [1], the Vd/F (in general, the volume of distribution divided by bioavailability) came out at 82 L. Besides, the half-life in [2] is 25.1 h.

For `CNCc1ccc(-c2[nH]c3cc(F)cc4c3c2CCNC4=O)cc1` [RUCAPARIB], in [3], half-maximal inhibition (IC50) required 0.4 nM. Further, the half-life in [4] was 17 h.

Take `C=CC(=O)Nc1cc(Nc2nccc(-c3cn(C)c4ccccc34)n2)c(OC)cc1N(C)CCN(C)C` [OSIMERTINIB]: the IC50 (as a rule, the concentration that inhibits the measured activity by half) in series [5] was determined as 27.6 nM. Moreover, the Fu in [6] was determined as 5%. Also, the half-life in series [4] was 48 h. For the same compound, the Vd in [7] came out at 918 L.

The compound `Cc1c(-c2ccc(O)cc2)n(Cc2ccc(OCCN3CCCCCC3)cc2)c2ccc(O)cc12` [BAZEDOXIFENE] registered a Vd in [8] of 14.7 L/kg. For the same compound, in series [9], the Tmax (usually the time at which the peak concentration occurs) is 2.5 h. Further, in series [10], the area under the curve (AUC) (as a rule, the area under the concentration-time curve, a measure of exposure) came to 71 ng·h/mL.
